From patent US20130253056A1, “Continuous Administration of Levodopa and/or Dopa Decarboxylase Inhibitors and Compositions for Same” (NEURODERM, LTD., priority 2009, published 2013)
In brackets after ≈: the same amount, converted by molar mass. Several values for one entry are separate records, joined by “and”; a condition that tells them apart may be missing. Equal entries are not always repeated. Structures can show the parent of a compound that is named as a salt. Where two headings read alike, the source gives them in different places.

Tests used:
[1] = Solubility in PBS, flask method; format: physicochemical; conditions: for solubility: phosphate buffered saline (PBS), aqueous buffer, thermodynamic from solid, read-out: Solubility of LDEs in PBS
Method: The “flask method” was used to determine the solubility of the test material in phosphate buffered saline (PBS) according to the OECD Guidelines for the Testing of Chemicals. Briefly, the test material was dissolved in PBS at a temperature slightly above the test temperature. When saturation is achieved, the solution is cooled to the test temperature and the mass concentration of the LD alkyl ester in the solution is determined quantitatively by measuring the absorbance of the solution at 280 nm and comparing the readings to a calibration curve of the relevant alkyl ester dissolved in PBS.

[2] = Transdermal delivery through pig skin ex vivo, Franz cell delivery system; format: in vitro ADME, porcine; conditions: gel formulations, receiver samples 0, 16, 19 and 22 hours
Method: Gel formulations containing CDPE were prepared. Samples were collected from the receiver cell at time 0, 16, 19 and 22 hours after formulation application on to the skin. The amount of CD compounds in the receiver cell fluid was determined by a spectrophotometer at […].

[3] = target: T1, dopa-decarboxylases (DDC) (Sus scrofa, UniProt P80041); assay: Inhibition of dopa-decarboxylase activity in vitro; format: biochemical; conditions: porcine liver homogenate
T1 construct: DDC enzymes were obtained from porcine liver homogenate; from tissue; host or cells: porcine liver homogenate
T1 sequence (P80041 1-486): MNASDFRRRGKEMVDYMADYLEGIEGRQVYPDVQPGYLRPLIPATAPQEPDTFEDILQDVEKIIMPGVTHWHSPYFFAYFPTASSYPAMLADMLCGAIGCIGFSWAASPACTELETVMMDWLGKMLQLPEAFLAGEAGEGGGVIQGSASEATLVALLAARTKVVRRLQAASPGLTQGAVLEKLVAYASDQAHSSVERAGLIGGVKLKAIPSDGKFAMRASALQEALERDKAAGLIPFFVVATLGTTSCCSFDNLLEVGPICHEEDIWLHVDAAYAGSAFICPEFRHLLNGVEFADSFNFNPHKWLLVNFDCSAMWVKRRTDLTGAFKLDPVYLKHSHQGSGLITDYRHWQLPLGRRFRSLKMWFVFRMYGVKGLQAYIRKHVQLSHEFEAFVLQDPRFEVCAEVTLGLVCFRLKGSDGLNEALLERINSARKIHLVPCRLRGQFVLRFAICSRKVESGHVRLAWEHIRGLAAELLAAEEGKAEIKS
Method: DDC enzymes were obtained from porcine liver homogenate and their activity was measured by comparing LD concentrations with and without carbidopa propyl ester (CDPE). Liver homogenate preparation was based on the method described by Umezawa et al; (J. Antib. 1975, 28(12):947-52).
All samples were separated on high pressure liquid chromatography columns and the identity and concentration of L-DOPA and dopamine were determined by HP UV-HPLC analysis at […].

[4] = Oral levodopa arginine and carbidopa arginine salts, PK in pigs; format: in vivo, female landrace×large white swine; conditions: for absorption as compared to LD/CD (Sinemet): oral 255/45 mg LDs/CDs (corresponding to 100/25 LD/CD); for PK of plasma LD and CD: oral enteric coated LDs/CDs
Method: Pigs were orally administered with 255/45 mg LD-arginine salt (LDs)/CD-arginine salt (CDs) to 30-35 kg pigs in gelatin coated or non-coated capsules (corresponding to 100/25 LD/CD). Plasma levels of LD and CD were measured by HPLC-ECD.

[5] = Pig skin penetration of LDE by patch; format: in vivo, pigs; conditions: for LD P/WB (%) / LD blood cells (C) / Whole blood (WB) LD / Ratio C/P / Plasma (P) LD: 16 h after patch application; for LD blood cells (C) / Whole blood (WB) LD / Plasma (P) LD / LD concentration in the blood cell fraction higher as compared to LDbzE: pigs; for Ratio C/P: blood cell fraction LD / plasma LD; for LD concentration in the blood cell fraction higher as compared to LDbzE: patch
Method: Patch removal occurred at 24 h. […] Both whole blood and plasma were subjected to LD and 3-OMD analysis. […] LD formed in the RBC stay within the RBCs, and is further metabolized to 3-OMD, which is reallocated from the RBCs into the plasma.

[6] = Intradermal delivery of LDE in pigs; format: in vivo
Method: LDEs were infused intradermally for 4 hours. […] Both whole blood and plasma samples were subjected to LD and LDE analysis.

mice = assay: Skin sensitization, LLNA (local lymph node assay); conditions: for Median SI / SI / Ind. SI: LLNA mice; for Ind. SI: individual animals
Method: Sensitization was tested in mice using a LLNA (local lymph node assay) model for the detection of skin sensitization. […] In another LLNA study, LD Propyl and Benzyl Esters were tested in vehicle containing penetration enhancers.

[7] = for LD in Blood (ng/ml): LDiPE / LD in Blood (ng/ml): LD-d3 / Recovery from Blood (%): LD-d3: whole blood
Method: LDEs [isopropyl ester (LDipE), propyl ester (LDpE), ethyl ester (LDeE)] and LD-d3, were spiked into whole blood, incubated for 15 or 60 minutes at 37° C., and the plasma or whole blood concentration of LD, LD-d3 and LDipE were quantified using HPLC analysis as shown in Table 6 and FIG. 13.

[8] = Effect of pH on stability and hydrolysis of LDipE; format: physicochemical
Method: FIG. 19 indicates the effect of pH on stability and hydrolysis of LDipE after 10 days at 4 and 40° C.

[9] = Continuous subcutaneous administration of LD benzyl ester-HCl in pigs; format: in vivo; conditions: 15% aqueous solution pH 4.7, continuous SC 2 ml/24 h, oral carbidopa q8 h
Method: An aqueous solution of 15% LD benzyl ester-HCl, pH 4.7, was continuously administered subcutaneously via an insulin patch pump, 2 ml/24 h. Carbidopa was administered orally q8 h, starting 1 h prior to pump application.

[10] = cited from earlier work
[11] = Continuous subcutaneous benserazide, levodopa PK in pigs; format: in vivo, female landrace×large white swine; conditions: continuous subcutaneous benserazide with oral L-dopa/Carbidopa
Method: (§1) Plasma levels of L-dopa were measured by HPLC-ECD.

[12] = Continuous subcutaneous carbidopa with or without entacapone, levodopa PK in pigs; format: in vivo, female landrace×large white swine; conditions: continuous SC 2% carbidopa with 2.5% entacapone, oral LD/CD
Method: as §1

[13] = T0 after spiking into whole blood
[14] = T15′ after spiking into whole blood

In the case of `CCCCOC(=O)[C@@H](N)Cc1ccc(O)c(O)c1` [Butyl, levodopa butyl ester], the “Solubility of LDEs in PBS” value [1] is reported as 8.85 mg/mL.

For `CCCOC(=O)C(C)(Cc1ccc(O)c(O)c1)NN` (stereo not shown) [CDPE, carbidopa propyl ester], the “transdermal delivery through full thickness porcine skin” value [2] was “penetrates the skin in an enhancer-dose dependent manner” and the “inhibition of decarboxylation of L-dopa to dopamine” value [3] was “inhibits the decarboxylation of L-dopa to dopamine, in a similar manner to carbidopa and benserazide”.

For `CC(Cc1ccc(O)c(O)c1)(NN)C(=O)O.N=C(N)NCCCC(N)C(=O)O` (stereo not shown) [CDs], the “absorption as compared to LD/CD (Sinemet)” value [4] was “absorbed more rapidly and efficiently” and the “PK of plasma LD and CD” value [4] was “extended the PK of plasma LD and CD”.

For `N[C@@H](Cc1ccc(O)c(O)c1)C(=O)OCc1ccccc1` [LD Benzyl Ester, levodopa benzyl ester], the “LD P/WB (%)” value [5] was 39.1%, the “LD P/WB (%)” value ([5]; listed as LDbzE) was roughly 40% and the “LD blood cells (C)” value [5] was 2506 ng/mL. For the same compound, the “Whole blood (WB) LD” value [5] was 4115 ng/mL and the “hydrolysis to LD” value ([6]; intradermal infusion) was “hydrolyzed to LD faster than LD isopropyl ester”.

For `CCOC(=O)[C@@H](N)Cc1ccc(O)c(O)c1` [LD Ethyl Ester, levodopa ethyl ester], the “LD P/WB (%)” value ([5]; listed as Ethyl) was 13.4%, the “LD P/WB (%)” value ([5]; listed as ethyl) was 13% and the “Ratio C/P” value [5] was 6.5. The “LD blood cells (C)” value [5] was 6418 ng/mL, the “Plasma (P) LD” value [5] was 989 ng/mL and the “Whole blood (WB) LD” value [5] was 7407 ng/mL. For the same compound, the “LD concentration in the blood cell fraction higher as compared to LDbzE” value [5] was 2.5 ×, the “Median SI” value (mice; 1M (24%) in DMF) was 10.8 and the SI (mice; 1M (24%) in DMF) was 10.7. For the same compound, the “Ind. SI” value (mice; 1M (24%) in DMF) was 13.31 and 8.22 and 14.45 and 6.65.

For `CC(C)OC(=O)[C@@H](N)Cc1ccc(O)c(O)c1` [LD Isopropyl Ester, levodopa isopropyl ester], the solubility [1] was 17.3 mg/mL (≈ 72.2 mM), the “Recovery from Blood (%): LDiPE” value ([7]; 0 min) was 45% and the “LD in Plasma (ng/ml): LDiPE” value ([7]; T0 after spiking of LDipE into whole blood) was 0 ng/mL. For the same compound, the “LD in Plasma (ng/ml): LDiPE” value ([7]; T15′ after spiking of LDipE into whole blood) was 0 ng/mL, the “LD in Blood (ng/ml): LDiPE” value ([7]; T0 after spiking of LDipE) was 180 ng/mL and the “LD in Blood (ng/ml): LDiPE” value ([7]; T15′ after spiking of LDipE, 37° C.) was 0 ng/mL. The “pH of the most stable formulation tested” value ([8]; after 10 days at 4° C.) was 5.1, the “pH of the most stable formulations tested” value ([8]; after 10 days at 40° C., listed as LDipE) was 3.7 and 4.8 and the “Median SI” value (mice; 1M (24%) in DMF) was 3.5. For the same compound, the SI (mice; 1M (24%) in DMF) was 4.2, the “Ind. SI” value (mice; 1M (24%) in DMF) was 3.63 and 7.11 and 2.69 and 3.33 and the recovery at 15 min (in vitro) was 0%. For the same compound, the recovery at 15 min, 400 ng/ml (in vitro) was 0% and the “levels of LDipE in the RBC fraction” value ([6]; during 4 hours intradermal infusion) was “Significant levels of LDipE were found in the RBC fraction”.

With `CCCOC(=O)[C@@H](N)Cc1ccc(O)c(O)c1` [LD Propyl Ester, levodopa propyl ester] the “Solubility of LDEs in PBS” value [1] was 11.238 mg/mL, the “LD P/WB (%)” value ([5]; listed as Propyl) was 24.7% and the “LD P/WB (%)” value ([5]; listed as propyl) was 25%. For the same compound, the “Ratio C/P” value [5] was 3.0, the “Ratio C/P” value ([5]; listed as LDpE) was 3 and the “LD blood cells (C)” value [5] was 4820 ng/mL. The “Plasma (P) LD” value [5] was 1584 ng/mL, the “Whole blood (WB) LD” value [5] was 6404 ng/mL and the “LD concentration in the blood cell fraction higher as compared to LDbzE” value [5] was 1.9 ×. The “Median SI” value (mice; 1M (24%) in DMF) was 3.5, the SI (mice; 1M (24%) in DMF) was 3.6 and the “Ind. SI” value (mice; 1M (24%) in DMF) was 2.32 and 4.55 and 5.12 and 2.44. The “Ind. SI” value (mice; 15% in Vehicle (penetration enhancers)) was 36.42 and 7.70 and 38.60 and 3.53 and 31.68, the “Median SI” value (mice; 15% in Vehicle) was 31.7 and the SI (mice; 15% in Vehicle) was 23.6. For the same compound, the “change of SI when applied using the transdermal formulation” value (mice; compared with DMF) was “significantly increased”.

With `NC(Cc1ccc(O)c(O)c1)C(=O)OCc1ccccc1` (stereo not shown) [LD benzyl ester-HCl] the “plasma concentrations of LD” value [9] was “fluctuations of LD concentrations in the plasma coincided with oral carbidopa administration”.

In the case of `[2H]c1c([2H])c(C[C@H](N)C(=O)O)c([2H])c(O)c1O` [LD-d3], the “LD in Plasma (ng/ml): LD-d3” value [7, 13] is reported as 533 ng/mL, the “Recovery from Plasma (%): LD-d3” value [7, 13] is reported as 67% and the “LD in Plasma (ng/ml): LD-d3” value [7, 14] is reported as 573 ng/mL. For the same compound, the “Recovery from Plasma (%): LD-d3” value [7, 14] was 70% and 72%, the “LD in Blood (ng/ml): LD-d3” value ([7]; T0 after spiking) was 289 ng/mL and the “Recovery from Blood (%): LD-d3” value ([7]; T0 after spiking) was 72%. The “Recovery from Blood (%): LD-d3” value ([7]; T15′ after spiking) was 72% and the “LD in Blood (ng/ml): LD-d3” value ([7]; T15′ after spiking, 37° C.) was 288 ng/mL.

For `N=C(N)NCCCC(N)C(=O)O.NC(Cc1ccc(O)c(O)c1)C(=O)O` (stereo not shown) [LDs], the “absorption as compared to LD/CD (Sinemet)” value [4] was “absorbed more rapidly and efficiently” and the “PK of plasma LD and CD” value [4] was “extended the PK of plasma LD and CD”.

For `N[C@@H](Cc1ccc(O)c(O)c1)C(=O)O` [Levodopa, L-3,4-dihydroxyphenylalanine], the “solubility in alcohol, chloroform or ether” value [10] is given as “practically insoluble” and the solubility in water [10] is given as “only slightly soluble in water”.

Compound `CCCCCCCCOC(=O)[C@@H](N)Cc1ccc(O)c(O)c1` [Octyl, levodopa octyl ester] has a solubility [1] of 0.031 mg/mL (≈ 0.1 mM).

In the case of `Nc1ccc(N)cc1` [Positive Control, p-Phenylendiamine, reference compound], the “Median SI” value (mice; 1%) is reported as 9.7, the SI (mice; 1%) is reported as 10.1 and the “Ind. SI” value (mice; 1%) is reported as 8.82 and 9.33 and 12.15 and 10.00.

With `NC(CO)C(=O)NNCc1ccc(O)c(O)c1O` (stereo not shown) [benserazide] the “pharmacokinetic profile of LD” value [11] was “extended the pharmacokinetic profile of LD”.

In the case of `CCN(CC)C(=O)/C(C#N)=C/c1cc(O)c(O)c([N+](=O)[O-])c1` [entacapone], the “levels of 3-OMD” value [12] is reported as “effectively reduced” and the pharmacokinetics of levodopa [12] is reported as “did not further extend”.
